Like-named read-outs stand apart in the source and are kept apart here.
Columns and labels:
[1] = test system: LLC cells; experiment: Cytotoxic effects of Ganoderma lucidum polysaccharide GLP-1 combined with cisplatin on LLC cells (MTT, absorbance at 570 nm); format: cell-based; settings: 48 h, GLP-1 2 mg/mL
Protocol: LLC lung cancer cells were seeded in a 96-well cell culture plate at 3,000 cells per well and incubated at 37° C. in a 5% CO2 incubator for 24 h. […] The cultures were then incubated for another 48 h before measuring the absorbance at 570 nm.

[2] = test system: H22-bearing mice; format: in vivo
Protocol: A homogenate suspension of H22 hepatoma solid tumors was injected subcutaneously under the axilla of 65 healthy male C57 mice to create a solid tumor model. Once all mouse tumors averaged a volume of about 230 mm3, mice were randomized into groups based on tumor volume and were administered the respective drugs or drug solvents via oral gavage or intraperitoneal injection for 25 consecutive days. Longest and shortest diameters of tumors were measured every three days to calculate tumor volume, and mouse weights were recorded every three days. At the end of the experiment, tumors, spleens, and thymuses were harvested and weighed to calculate tumor, spleen, and thymus indices.
Based on previous experimental results, Ganoderma lucidum polysaccharide GLP-1 was administered at a low dose of 50 mg/kg and a high dose of 150 mg/kg as shown in Table 20.
(§1) Where TRTV is the relative tumor volume in the experimental group, and CRTV is the relative tumor volume in the model control group. Relative tumor volume (RTV)=Vt/V0, where Vt is the tumor volume on day t of dosing, and V0 is the tumor volume at the time of grouping.
(§2) Where T represents the average tumor weight in the treatment group, and C represents the average tumor weight in the model control group.
(§3) Spleen and thymus organ coefficients: After the last dose, spleen, thymus, and tumor weights are measured, and organ coefficients are calculated.
(§4) Tumor index (%)=(tumor weight/body weight)×100%.
(§5) Immune organ index (mg/g)=(organ mass/body weight)×1000.
(§6) Statistical analyses were performed using SPSS 17.0, with the significance level set at P≤0.05. Measurement data were expressed as mean±standard deviation (x±s). Normality and homogeneity of variance were tested using Leven's test. If data met normality and homogeneity of variance (P>0.05), one-way ANOVA and LSD test were used for statistical analysis. […] If the Kruskal-Wallis test was statistically significant (P<0.05), comparison analysis was performed using Dunnett's Test (a non-parametric method). Evaluation considered statistical differences and biological significance.

[3] = test system: 4T1 breast tumor-bearing mice; format: in vivo, BALB/c mice
Protocol: A suspension of 4T1 breast cancer cells was injected subcutaneously into the left shoulder back of 60 healthy female BALB/c mice to create solid tumor models. When the mean tumor volume reached approximately 190 mm^3, the mice were randomized into groups based on tumor volume, and were administered the respective drugs or drug solvents via oral gavage or intraperitoneal injection over 18 consecutive days. Longest and shortest diameters of tumors were measured every three days to calculate tumor volume, and mouse weights were recorded every three days. At the end of the experiment, tumors, spleens, and thymuses were harvested and weighed to calculate tumor, spleen, and thymus indices.
Based on previous experimental results, Ganoderma lucidum polysaccharide GLP-1 was administered at a low dose of 50 mg/kg and a high dose of 150 mg/kg as shown in Table 27.
as §1, §2, §3, §4, §5
as §6, with “(˜±s).” for “(x±s).”

[4] = test system: LLC-bearing mice; settings: cisplatin 4 mg/kg, Kanglaite 1404 mg/kg
[5] = cisplatin 3 mg/kg, GLP-1 low-dose 50 mg/kg
[6] = blood, flow cytometry, GLP-1 low-dose 130 mg/kg

Compound: N.N.[Cl][Pt][Cl] [Cisplatin, cisplatin]
- Inhibition rate [1]: 35.2%
- Survival time ([2]; 25 days of dosing, cisplatin 3 mg/kg, GLP-1 low-dose 50 mg/kg): 25 ± 0 days
- Tumor growth inhibition rate vs. the model control group ([2]; H22-bearing mice, end of experiment, cisplatin alone): 84.2%
- Tumor growth inhibition rate compared to the model control group ([2]; by tumor weight, cisplatin 3 mg/kg, GLP-1 low-dose 50 mg/kg): 84.2%
- Mortality rate [2, 5]: 0%
- Number of deaths [2, 5]: 0
- Number of deaths ([3]; 4T1 breast tumor-bearing mice, 8 animals, cisplatin 4 mg/kg i.p.): 1
- Survival time ([3]; 4T1 breast tumor-bearing mice, 18-day dosing, cisplatin 4 mg/kg i.p.): 17.1 ± 2.3 days
- Tumor volume ([3]; 4T1 breast tumor-bearing mice, D0, cisplatin 4 mg/kg i.p.): 190.5 ± 34.8 mm^3
- Tumor growth inhibition rate vs. the model control group ([3]; 4T1 breast tumor-bearing mice, end of experiment, cisplatin 4 mg/kg i.p.): 71.6%
- Tumor growth inhibition rate compared to the model control group ([3]; by tumor weight, cisplatin 4 mg/kg, GLP-1 low-dose 50 mg/kg): 71.6%
- Tumor volume ([4]; D1, GLP-1 low-dose 130 mg/kg): 94.99 mm^3
- Tumor volume ([4]; D4, GLP-1 low-dose 130 mg/kg): 150.58 mm^3
- Tumor volume ([4]; D7, GLP-1 low-dose 130 mg/kg): 8.91 mm^3
- Tumor volume ([4]; D10, GLP-1 low-dose 130 mg/kg): 6.51 mm^3
- Tumor volume ([4]; D13, GLP-1 low-dose 130 mg/kg): 27.36 mm^3
- Tumor volume ([4]; D16, GLP-1 low-dose 130 mg/kg): 36.09 mm^3
- Tumor volume ([4]; D19, GLP-1 low-dose 130 mg/kg): 71.00 mm^3
- Tumor volume ([4]; D22, GLP-1 low-dose 130 mg/kg): 824.01 mm^3
- Tumor volume ([4]; D25, GLP-1 low-dose 130 mg/kg): 976.79 mm^3
- Tumor histopathology ([4]; H&E, x200): large areas of necrosis and hemorrhage were visible at the tumor center, with abundant tumor cells
- Tumor coefficient ([4]; after last dose, GLP-1 low-dose 130 mg/kg): 7.528 ± 2.567 %
- CD3^+/CD4^+ [4, 6]: 0.093 ± 0.025
- CD3^+/CD8^+ [4, 6]: 1.571 ± 0.406
- Tumor growth inhibition rate ([4]; by tumor weight vs model control, GLP-1 low-dose 130 mg/kg): 61.6%
- Blood WBC level compared to the model control group ([4]; GLP-1 low-dose 130 mg/kg): significantly decreased
- Body weight compared to the model control group ([4]; GLP-1 low-dose 130 mg/kg): significantly decreased after administration from D7 to D25
- Mortality rate ([4]; GLP-1 low-dose 130 mg/kg): 0%
- Number of deaths ([4]; GLP-1 low-dose 130 mg/kg): 0
- Number of surviving animals ([4]; GLP-1 low-dose 130 mg/kg): 8

Reference: patent US20250144132A1, “POLYSACCHARIDE COMPOUND WITH A DEFINED MOLECULAR STRUCTURE THAT CAN ELIMINATE THE TOXIC SIDE EFFECTS OF CHEMOTHERAPY DRUGS” (priority 2023, published 2025)
